The record followed here is ChEMBL document CHEMBL4811310, “Antimalarial activity of 2,6-dibenzylidenecyclohexanone derivatives” (Bioorg Med Chem Lett, 2021).

One data set deals with BJ. The data set is described as follows: Cytotoxicity against human BJ cells assessed as reduction in cell viability. It counts as cell-based.
Data set [1] has as its system Plasmodium falciparum. Nature of the data set: Antimalarial activity against CQ-sensitive Plasmodium falciparum 3D7 MRA-102 infected in human O-positive erythrocytes assessed as inhibition of parasite growth. As to conditions: 3D7 MRA-102, Erythrocyte. It counts as functional, organism-based.
Data set [2] can be described thus: Solubility in PBS buffer at pH 7.4. It counts as physicochemical.
The nature of data set [3]: Therapeutic index, ratio of EC50 for cytotoxicity against human BJ cells to EC50 for antimalarial activity against CQ-sensitive Plasmodium falciparum 3D7 MRA-102 infected in human O-positive erythrocytes. It counts as toxicity, cell-based. As to conditions: read-out: Ratio EC50.
In data set [4] the test system is Plasmodium falciparum. Nature of the data set: Antimalarial activity against Plasmodium falciparum K1 infected in human erythrocytes assessed as inhibition of parasite growth. As to conditions: K1, Erythrocyte. It counts as functional, organism-based.
For data set [5], the system named is Plasmodium falciparum. Nature of the data set: Antimalarial activity against Plasmodium falciparum V1S infected in human erythrocytes assessed as inhibition of parasite growth. Format: functional, organism-based. The settings on record: Erythrocyte.
Data set [6] is described as follows: Cytotoxicity against human BJ cells assessed as reduction in cell viability at 58 uM. Format: cell-based. The settings on record: read-out: INH.
Data set [7] relates to Plasmodium falciparum. Nature of the data set: Antimalarial activity against CQ-sensitive Plasmodium falciparum 3D7 MRA-102 infected in human O-positive erythrocytes assessed as inhibition of parasite growth at 16 uM. Format: functional. As to conditions: 3D7 MRA-102, Erythrocyte.

Each structure is given as a SMILES string. ≈ marks a conversion by molar mass, not a printed value.

In general, EC50 refers to the concentration that produces a half-maximal response. As a reminder, the solubility is how much of the substance goes into solution per volume. Lower therefore signals a poorly soluble substance. For the molecule `CC1C/C(=C\c2cccc(C(F)(F)F)c2)C(=O)/C(=C/c2cccc(C(F)(F)F)c2)C1` (configuration not stated), the EC50 in the data set with BJ was determined as 20.1 µM; in the data set on Plasmodium falciparum [1] it was 1.1 µM. For the same molecule, the solubility in data set [2] is less than 1 µM. Further, in data set [3], the selectivity ratio worked out at 18.

Consider `O=C1/C(=C/c2cccc(C(F)(F)F)c2)CC(c2ccccc2)C/C1=C\c1cccc(C(F)(F)F)c1` (configuration not stated), for which the EC50 in the data set on BJ stood at 1.53 µM; in the data set with Plasmodium falciparum [1] it was 0.491 µM. For the same molecule, the solubility in data set [2] was 1.1 µM (≈ 0.535 µg/mL). Besides, the selectivity ratio in data set [3] worked out at 3.

Turning to `CCCSc1ccc2nc(NC(=O)OC)[nH]c2c1` [ALBENDAZOLE], in data set [2], the solubility is less than 1 µM.

As to `N#CC1(c2ccccc2)CC(Cc2cccc(C(F)(F)F)c2)C(=O)C(Cc2cccc(C(F)(F)F)c2)C1` (configuration not stated), the EC50 with BJ was greater than 24 µM; in the data set on Plasmodium falciparum [1], 1.03 µM. Further, the solubility in data set [2] was found to be 2.3 µM (≈ 1.19 µg/mL). Besides, the selectivity ratio in data set [3] is greater than 23.

Turning to `O=C1/C(=C/c2cccc(C(F)(F)F)c2)COC/C1=C\c1cccc(C(F)(F)F)c1`, the EC50 in the data set with BJ is 23.7 µM; with Plasmodium falciparum [1], 1.16 µM. The same molecule registered a solubility in data set [2] of 1.4 µM (≈ 0.577 µg/mL). For the same molecule, the selectivity ratio in data set [3] was found to be 20.

For `N#CC1(c2ccccc2)C/C(=C\c2cccc(C(F)(F)F)c2)C(=O)/C(=C/c2cccc(C(F)(F)F)c2)C1` (configuration not stated), the EC50 with BJ was found to be 0.57 µM; in the data set with Plasmodium falciparum [1], 0.331 µM; in the data set on Plasmodium falciparum [4], 0.53 µM; with Plasmodium falciparum [5], 0.25 µM. Also, the selectivity ratio in data set [3] amounted to 2.

For `O=C1/C(=C/c2cccc(C(F)(F)F)c2)CSC/C1=C\c1cccc(C(F)(F)F)c1`, the concentration giving a half-maximal response (EC50) with BJ was 23.2 µM; in the data set with Plasmodium falciparum [1], 0.82 µM. Further, the solubility in data set [2] was 1.2 µM (≈ 0.514 µg/mL). Besides, the selectivity ratio in data set [3] turned out to be 28.

For `CC(C)(C)C1C/C(=C\c2cccc(C(F)(F)F)c2)C(=O)/C(=C/c2cccc(C(F)(F)F)c2)C1` (configuration not stated), the EC50 in the data set with BJ was greater than 24 µM; in the data set with Plasmodium falciparum [1], 0.641 µM. In data set [2], the solubility was less than 1 µM. Also, the selectivity ratio in data set [3] is greater than 37.

In the case of `O=C1/C(=C/c2cccc(C(F)(F)F)c2)CCC/C1=C\c1cccc(C(F)(F)F)c1`, the concentration giving a half-maximal response (EC50) in the data set with BJ came to 23.5 µM; in the data set with Plasmodium falciparum [1] it was 2.29 µM. Further, in data set [2], the solubility was less than 1 µM. Further, in data set [3], the selectivity ratio was 10.

On to `CC(=O)[C@]1(O)Cc2c(O)c3c(c(O)c2[C@@H](O[C@H]2C[C@H](N)[C@H](O)[C@H](C)O2)C1)C(=O)c1ccccc1C3=O` [IDARUBICIN], for which, in data set [6], the cytotoxicity at 58 µM came out at 100%.

In the case of `N#CC1(c2ccccc2)C/C(=C\c2cccc(F)c2)C(=O)/C(=C/c2cccc(F)c2)C1` (configuration not stated), the EC50 was found to be 2.27 µM in the data set with BJ and 1.13 µM in the data set with Plasmodium falciparum [1]. In data set [2], this molecule returned a solubility of less than 1 µM. Besides, the selectivity ratio in data set [3] came to 2.

One may read the inhibition as the relative decrease from the control value, in per cent. Turning to `O[C@@H](c1cc(C(F)(F)F)nc2c(C(F)(F)F)cccc12)[C@H]1CCCCN1` [(S,R)-MEFLOQUINE], the inhibition at 16 µM with Plasmodium falciparum [7] turned out to be 100%.

Consider `N#CC1(c2ccccc2)C/C(=C\c2ccc(C(F)(F)F)cc2)C(=O)/C(=C/c2ccc(C(F)(F)F)cc2)C1` (configuration not stated), for which the EC50 is 0.406 µM in the data set on BJ and 0.207 µM in the data set with Plasmodium falciparum [1]. The molecule also had a solubility in data set [2] of less than 1 µM. The selectivity ratio in data set [3] worked out at 2.

For `NC(=O)N1c2ccccc2C=Cc2ccccc21` [CARBAMAZEPINE], the solubility in data set [2] is greater than 100 µM.

Take `O=C1/C(=C/c2cccc(C(F)(F)F)c2)CS(=O)(=O)C/C1=C\c1cccc(C(F)(F)F)c1`: the EC50 with BJ worked out at 0.12 µM; with Plasmodium falciparum [1], 0.393 µM. The molecule further had a solubility in data set [2] of less than 1 µM. For the same molecule, the selectivity ratio in data set [3] was less than 1.

As for `N#CC1(c2ccccc2)C/C(=C\c2ccccc2)C(=O)/C(=C/c2ccccc2)C1` (configuration not stated), the EC50 was found to be 5.85 µM with BJ and 1.36 µM in the data set with Plasmodium falciparum [1]. This molecule also gave a solubility in data set [2] of less than 1 µM. Further, the selectivity ratio in data set [3] was found to be 4.

`N#CC1(c2ccccc2)C/C(=C\c2cccc(C(F)(F)F)c2)C(O)/C(=C/c2cccc(C(F)(F)F)c2)C1` (configuration not stated): the results for the EC50 with BJ and in the data set on Plasmodium falciparum [1] were greater than 24 µM and 3.21 µM, respectively. The solubility in data set [2] turned out to be 2.5 µM (≈ 1.28 µg/mL). Besides, the selectivity ratio in data set [3] was greater than 7.
